Measured values taken from paper PMC4740303, “The Sigma-2 Receptor and Progesterone Receptor Membrane Component 1 are Different Binding Sites Derived From Independent Genes” (EBioMedicine, 2015).
Numbering of substitutions follows the chain as printed. “Also recorded” adds a separate entry of the source.

How the values were obtained:
S2R [1] = target: T1, S2R (Mus musculus, UniProt Q8VD00); settings: cited from earlier work
T1 construct: Membranes (28 μg total proteins per reaction) prepared from NSC34 cells of controls, PGRMC1 knockout, or PGRMC1-3 × HA overexpression; endogenous in cells; host or cells: NSC34 cells (control, PGRMC1 knockout clones 38 and 207, PGRMC1-3xHA overexpressing)
T1 sequence (Q8VD00 1-176): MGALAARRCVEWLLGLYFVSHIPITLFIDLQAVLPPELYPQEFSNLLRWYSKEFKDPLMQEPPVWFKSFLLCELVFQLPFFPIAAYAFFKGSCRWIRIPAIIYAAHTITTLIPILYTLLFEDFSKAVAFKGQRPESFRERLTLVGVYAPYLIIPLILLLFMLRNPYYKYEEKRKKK

PGRMC1 [2] = settings: ref Peluso et al., 2008; cited from earlier work
S1R [3] = target: T2, S1R (Mus musculus, UniProt O55242); settings: cited from earlier work; for affinity for the S1R: ref Hellewell et al., 1994
T2 construct: membranes prepared from control and PGRMC1 knockout (clones 38 and 207) NSC34 cells; endogenous in cells; host or cells: NSC34 cells (control and PGRMC1 knockout clones 38 and 207)

S2R [4] = target: T1, S2R; set-up: method as in Pal et al., 2007; settings: earlier work of the group; ref Pal et al., 2007; cited from earlier work
PGRMC1 [5] = test system: PGRMC1; set-up: method as in Xu et al., 2011; settings: ref Xu et al., 2011, cited from earlier work
S2R [6] = target: T3, S2R (Rattus norvegicus, UniProt Q5U3Y7); assay: [^125I]-IAF photolabeling of the S2R in PC12 membranes; assay type: binding
T3 construct: [^125I]-IAF photolabeling of the S2R in PC12 membranes; endogenous in cells; host or cells: PC12 cells
T3 sequence (Q5U3Y7 1-176): T1 sequence (Q8VD00 1-176) with L4V, A5T, L26M, V33L, L71F, A105V, L118I, V127I, S136N, Y169F
Method: (§1) Cell membrane preparation was performed following our established method ([Guo et al., 2012]). Briefly, cell pellets were suspended in PBS and sonicated on ice using the following settings: 5 sets (10 strokes/set) at duty cycle = 50, output control = 5. Cell homogenates were centrifuged at 8000 × g for 10 min, and the resulting supernatant was collected and subjected to ultracentrifugation at 100,000 × g for 1 h. The supernatant was discarded and the pellet was gently washed twice with ice-cold PBS. The pellet was then resuspended in PBS and sonicated (3 sets, 10 strokes/set at duty cycle = 50, output control = 5) to homogeneity. Protein concentration was then measured using the standard Bradford reagent (Sigma-Aldrich, St. Louis, MO).
(§2) The synthesis of [^125I]-IAF and photolabeling was performed according to our published method ([Pal et al., 2007]). […] [^125I]-IAF was then added (final 1 nM) and incubated for another 40 min with gentle shaking in the dark. Photoactivation of [^125I]-IAF was performed by exposing the samples to a high-pressure AH-6 mercury lamp for 5 s and Laemmli buffer was immediately added to each sample. The samples were then resolved on a 16 × 18 cm SDS gel with 6–18% acrylamide gradient. The gel was dried and exposed to a phosphor screen for 24–48 h and autoradiograms were recorded using a Phosphoimager (Molecular Dynamics).

S1R [7] = target: T2, S1R; assay: [^125I]-IAF photolabeling of the S1R in NSC34 cell membranes; assay type: binding; settings: NSC34 membranes (control and PGRMC1 knockout)
Method: as §1, §2

S1R [8] = target: T4, S1R (Rattus norvegicus, UniProt Q9R0C9); assay: [^125I]-IAF photolabeling of the S1R in PC12 membranes; assay type: binding; settings: 20 μM
T4 construct: endogenous in cells; host or cells: PC12 cells
Method: as §1, §2

S2R [9] = target: T1, S2R; assay: [^125I]-IAF photolabeling of the S2R in NSC34 cell membranes; assay type: binding; settings: NSC34 membranes (control and PGRMC1 knockout); 20 μM
Method: as §1, §2

PGRMC1 [10] = target: PGRMC1 (Rattus norvegicus, UniProt P70580); assay: biochemical
Method: Liver tissues were homogenized (10 ml buffer/g wet tissue) by 4 bursts of 10 s each using a Brinkman polytron (American Laboratory Trading Inc., East Lyme, CT) on setting 6 in ice-cold sodium phosphate buffer (10 mM pH 7.4) containing 0.32 M sucrose and a cocktail of protease inhibitors (20 μg/ml leupeptin, 5 μg/ml soybean trypsin inhibitor, 100 μM phenylmethylsulfonyl fluoride (PMSF), 100 μM benzamidine and 1 mM EDTA). The membrane suspension after homogenization was centrifuged for 10 min at 17,000 × g and the supernatant was subjected to ultracentrifugation at 100,000 × g for 1 h to collect membrane fractions. The pellet from the second centrifugation was resuspended to a protein concentration of 10 mg/ml in the foregoing buffer, snapped frozen and stored at − 80 °C.
Inhibition of [^3H]-progesterone binding to PGRMC1 was performed according to [Peluso et al. (2008)]. […] After incubation at 37 °C for 60 min, the reaction was terminated by rapid filtration through glass fiber filters, using a Brandel cell harvester and processed as described above. […] Nonspecific binding was monitored in the presence of nonradioactive progesterone at 10 μM and subtracted from total [^3H]-progesterone binding.

S2R [11] = target: T1, S2R; assay: Saturation binding of [^3H]-DTG in NSC34 cell membranes, S1R masked with (+)-pentazocine; settings: mean ± SEM
Method: as §1

S2R [12] = target: T1, S2R; set-up: method as in Matsumoto et al., 2014; settings: competitive [^3H]-DTG binding assays; ref Matsumoto et al., 2014; cited from earlier work
S1R [13] = target: T2, S1R; set-up: method as in Matsumoto et al., 2014; settings: competitive [^3H]-DTG binding assays; ref Matsumoto et al., 2014; cited from earlier work
S2R (sigma-2 receptor) = target: T5, S2R (sigma-2 receptor) (Rattus norvegicus, UniProt Q5U3Y7); assay: Inhibition of [^3H]-DTG binding to the S2R in rat liver membranes
T5 construct: Experiments were performed with rat liver membranes; tissue Pel Freez Biologicals; host or cells: rat liver
T5 sequence (Q5U3Y7 1-176): T1 sequence (Q8VD00 1-176) with L4V, A5T, L26M, V33L, L71F, A105V, L118I, V127I, S136N, Y169F
Method: Rat liver membranes, a rich source of sigma-2 receptor, were prepared as described in our previous reports ([Pal et al., 2007], [Guo et al., 2012]) from frozen tissues (Pel Freez Biologicals, Rogers, AR). Liver tissues were homogenized (10 ml buffer/g wet tissue) by 4 bursts of 10 s each using a Brinkman polytron (American Laboratory Trading Inc., East Lyme, CT) on setting 6 in ice-cold sodium phosphate buffer (10 mM pH 7.4) containing 0.32 M sucrose and a cocktail of protease inhibitors (20 μg/ml leupeptin, 5 μg/ml soybean trypsin inhibitor, 100 μM phenylmethylsulfonyl fluoride (PMSF), 100 μM benzamidine and 1 mM EDTA). The membrane suspension after homogenization was centrifuged for 10 min at 17,000 × g and the supernatant was subjected to ultracentrifugation at 100,000 × g for 1 h to collect membrane fractions. The pellet from the second centrifugation was resuspended to a protein concentration of 10 mg/ml in the foregoing buffer, snapped frozen and stored at − 80 °C.

T2 sequence (O55242 whole entry): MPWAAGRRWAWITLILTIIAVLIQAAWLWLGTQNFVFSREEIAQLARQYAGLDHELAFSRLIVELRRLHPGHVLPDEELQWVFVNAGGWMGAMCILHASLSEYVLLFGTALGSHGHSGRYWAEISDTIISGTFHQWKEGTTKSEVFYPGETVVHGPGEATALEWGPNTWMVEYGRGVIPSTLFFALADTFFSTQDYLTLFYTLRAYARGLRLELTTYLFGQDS
Sequence of PGRMC1 (Rattus norvegicus, UniProt P70580) (P70580 whole entry): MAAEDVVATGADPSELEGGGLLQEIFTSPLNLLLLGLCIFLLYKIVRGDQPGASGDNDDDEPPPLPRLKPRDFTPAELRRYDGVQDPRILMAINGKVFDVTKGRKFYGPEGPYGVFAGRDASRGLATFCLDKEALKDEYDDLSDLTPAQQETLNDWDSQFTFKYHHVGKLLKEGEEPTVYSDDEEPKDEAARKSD
T4 sequence (Q9R0C9 whole entry): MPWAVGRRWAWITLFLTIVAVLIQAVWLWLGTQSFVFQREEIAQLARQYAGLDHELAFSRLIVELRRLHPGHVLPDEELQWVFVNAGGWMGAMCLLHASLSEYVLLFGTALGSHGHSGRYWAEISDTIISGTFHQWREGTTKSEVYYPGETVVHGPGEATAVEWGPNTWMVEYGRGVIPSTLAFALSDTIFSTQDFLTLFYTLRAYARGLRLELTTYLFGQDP

Q: With `O=c1oc2cc(N=C=S)ccc2n1CCCCN1CCN(c2ccc(F)cc2)CC1` [CM572] as the compound, how does the “type of S2R ligand” value (S2R [1]; ref Nicholson et al., 2015) read?
A: Its value is “irreversible selective affinity label for the S2R”.

Q: With `CC(=O)[C@H]1CC[C@H]2[C@@H]3CCC4=CC(=O)CC[C@]4(C)[C@H]3CC[C@]12C` [[^3H]-progesterone] as the compound, how does the Kd (PGRMC1 [2]) read?
A: Its Kd is 35 nM.

Q: Which results are given for `Cc1ccccc1NC(=N)Nc1ccccc1C` [DTG, 1,3-di-o-tolylguanidine]?
A: Kd (S1R [3]; read-out: KD for DTG at the S1R, depending on sources of membranes and assay methods, ref Weber et al., 1986, Quirion et al., 1992, Itzhak and Kassim, 1990, Itzhak, 1987): 20 to 80 nM; affinity for the S1R (S1R [3]): ~ 50 nM; protection of the [^125I]-IAF photolabeled S2R band (S2R [4]): protected; affinity for the S2R (S2R [1]; ref Hellewell et al., 1994): ~ 50 nM; protection of photolabeling of PGRMC1 (with WC-21) (PGRMC1 [5]; 1 μM): protected the photolabeling of PGRMC1; protection of [^125I]-IAF photolabeling of the S2R (S2R [6]; 20 μM): protected; protection of [^125I]-IAF photolabeling of the S1R (26 kDa band) (S1R [7]; 20 μM): protected against photolabeling of both the S1R and the S2R; protection of [^125I]-IAF photolabeling of the S1R (S1R [8]): protected; protection of [^125I]-IAF photolabeling of the S2R (~18 kDa band) (S2R [9]): protected against photolabeling of both the S1R and the S2R; Ki (PGRMC1 [10]): 472 µM

Q: For `CC(C)=CCN1CC[C@]2(C)c3cc(O)ccc3C[C@H]1[C@H]2C` [(+)-pentazocine], which “affinity for the S1R” value (S1R [3]) is on record?
A: The value was < 10 nM.

Q: And the “ligand for PGRMC1” value (PGRMC1 [5])?
A: Its value is “not a ligand for PGRMC1”.

Q: And the “protection of [^125I]-IAF photolabeling of the S1R (26 kDa band)” value (S1R [7]; 5 μM)?
A: The value was “protected against [^125I]-IAF photolabeling of the S1R; also recorded: readily protected”.

Q: For `Cc1ccccc1NC(=N)Nc1ccccc1C` [[^3H]-DTG, [^3H]-1,3-Di-tolylguanidine], which Bmax (S2R [11]; Control NSC34 cells (expression vector without PGRMC1 gene)) is on record?
A: Its Bmax is 2.35 ± 0.5 pmol/mg.

Q: What about the Bmax (S2R [11]; PGRMC1-HA overexpressing NSC34 cells) of the same compound?
A: The Bmax was 2.5 ± 0.08 pmol/mg.

Q: Which results are given for `COc1cc2c(cc1OC)CN(CCCCn1c(=O)n(C)c3ccccc31)CC2` [CM398]?
A: Ki (S2R [12]): 0.43 nM; Ki (S1R [13]): 560 nM; protection of [^125I]-IAF photolabeling of the S2R (S2R [6]; 1 and 10 μM): selectively blocked the labeling of the S2R

Q: Which results are given for `CC(=O)[C@H]1CC[C@H]2[C@@H]3CCC4=CC(=O)CC[C@]4(C)[C@H]3CC[C@]12C` [progesterone]?
A: Kd (PGRMC1 [2]): 35 nM; Ki (S2R (sigma-2 receptor)): 14.2 ± 4.9 µM
